Key:
[1] = target: T1, Protein mono-ADP-ribosyltransferase PARP14 (Homo sapiens, UniProt Q460N5); assay: Inhibition of recombinant human His6-tagged PARP14 catalytic/WWE domain (1459 to 1801 residues) expressed in Escherichia coli BL21(DE3) preincubated for 15 mins followed by biotinylated NAD+ addition by chemiluminescence assay
[2] = target: T2, Poly [ADP-ribose] polymerase 1 (Homo sapiens, UniProt P09874); assay: Inhibition of recombinant human full length His6-tagged PARP1 expressed in Escherichia coli BL21(DE3) preincubated for 15 mins followed by biotinylated NAD+ addition by chemiluminescence assay
T2 sequence (P09874 whole entry, the tested form may be a part): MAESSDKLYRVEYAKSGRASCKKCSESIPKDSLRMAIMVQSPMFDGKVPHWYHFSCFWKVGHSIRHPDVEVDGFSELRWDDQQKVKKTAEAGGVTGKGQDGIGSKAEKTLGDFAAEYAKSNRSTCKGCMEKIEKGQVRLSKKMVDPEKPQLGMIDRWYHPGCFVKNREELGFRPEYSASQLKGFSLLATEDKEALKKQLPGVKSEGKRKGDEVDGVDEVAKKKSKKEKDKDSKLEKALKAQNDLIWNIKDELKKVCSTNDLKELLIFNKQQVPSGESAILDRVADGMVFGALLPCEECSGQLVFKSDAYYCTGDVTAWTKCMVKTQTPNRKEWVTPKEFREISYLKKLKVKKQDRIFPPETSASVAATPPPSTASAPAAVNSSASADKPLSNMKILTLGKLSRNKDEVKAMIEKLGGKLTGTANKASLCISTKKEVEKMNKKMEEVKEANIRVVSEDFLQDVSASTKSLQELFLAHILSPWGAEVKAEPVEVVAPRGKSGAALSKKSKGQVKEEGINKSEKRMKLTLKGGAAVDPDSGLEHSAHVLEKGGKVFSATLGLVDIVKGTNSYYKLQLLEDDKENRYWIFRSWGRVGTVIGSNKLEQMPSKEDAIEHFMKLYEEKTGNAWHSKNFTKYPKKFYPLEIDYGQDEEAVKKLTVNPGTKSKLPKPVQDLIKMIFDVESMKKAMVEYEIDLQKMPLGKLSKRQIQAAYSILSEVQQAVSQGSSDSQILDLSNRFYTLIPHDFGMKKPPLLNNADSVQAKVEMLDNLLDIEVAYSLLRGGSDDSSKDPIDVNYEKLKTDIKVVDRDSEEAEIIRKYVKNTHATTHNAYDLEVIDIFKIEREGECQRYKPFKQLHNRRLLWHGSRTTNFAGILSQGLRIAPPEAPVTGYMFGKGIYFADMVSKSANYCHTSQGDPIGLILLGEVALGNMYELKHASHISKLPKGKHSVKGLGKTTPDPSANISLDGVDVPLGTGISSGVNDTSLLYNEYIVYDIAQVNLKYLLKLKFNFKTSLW

[3] = target: T3, Poly [ADP-ribose] polymerase tankyrase-1 (Homo sapiens, UniProt O95271); assay: Inhibition of recombinant human His6-tagged PARP5a catalytic domain (1091 to 1325 residues) expressed in Escherichia coli BL21(DE3) preincubated for 15 mins followed by biotinylated NAD+ addition by chemiluminescence assay
T3 sequence (O95271 whole entry): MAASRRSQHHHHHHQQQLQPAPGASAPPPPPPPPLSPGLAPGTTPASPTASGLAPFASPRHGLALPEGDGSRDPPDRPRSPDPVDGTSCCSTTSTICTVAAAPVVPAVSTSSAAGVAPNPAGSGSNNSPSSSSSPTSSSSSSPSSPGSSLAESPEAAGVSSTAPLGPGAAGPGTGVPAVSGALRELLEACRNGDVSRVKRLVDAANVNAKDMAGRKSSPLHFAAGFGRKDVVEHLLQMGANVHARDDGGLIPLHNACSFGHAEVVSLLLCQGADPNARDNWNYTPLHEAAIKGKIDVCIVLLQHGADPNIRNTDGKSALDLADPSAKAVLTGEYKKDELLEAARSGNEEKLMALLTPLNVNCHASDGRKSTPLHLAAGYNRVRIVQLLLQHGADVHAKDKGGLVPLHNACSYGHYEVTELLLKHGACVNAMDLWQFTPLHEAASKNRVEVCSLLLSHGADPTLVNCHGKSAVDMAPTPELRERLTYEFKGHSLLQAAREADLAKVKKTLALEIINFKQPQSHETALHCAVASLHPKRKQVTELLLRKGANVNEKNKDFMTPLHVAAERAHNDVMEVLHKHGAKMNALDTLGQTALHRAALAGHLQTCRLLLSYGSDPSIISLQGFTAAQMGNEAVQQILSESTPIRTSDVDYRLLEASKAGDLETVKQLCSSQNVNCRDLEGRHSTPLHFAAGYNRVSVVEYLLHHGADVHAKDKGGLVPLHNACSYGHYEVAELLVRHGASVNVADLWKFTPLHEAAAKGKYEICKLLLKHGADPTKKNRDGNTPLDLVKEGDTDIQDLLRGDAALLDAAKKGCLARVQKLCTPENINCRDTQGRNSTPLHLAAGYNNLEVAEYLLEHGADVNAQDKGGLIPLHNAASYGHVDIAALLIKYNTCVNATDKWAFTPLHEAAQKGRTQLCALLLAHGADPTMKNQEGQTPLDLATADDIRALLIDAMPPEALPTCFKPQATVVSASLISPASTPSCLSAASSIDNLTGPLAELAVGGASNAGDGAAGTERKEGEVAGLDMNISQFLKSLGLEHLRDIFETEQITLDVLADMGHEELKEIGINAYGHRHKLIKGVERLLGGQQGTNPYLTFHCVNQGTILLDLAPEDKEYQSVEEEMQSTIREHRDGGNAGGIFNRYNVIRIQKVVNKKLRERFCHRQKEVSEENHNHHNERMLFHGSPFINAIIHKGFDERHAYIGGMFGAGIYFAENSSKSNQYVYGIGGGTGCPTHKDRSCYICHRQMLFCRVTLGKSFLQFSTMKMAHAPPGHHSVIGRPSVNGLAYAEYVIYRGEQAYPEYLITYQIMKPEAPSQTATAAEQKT

Homo sapiens = species: Homo sapiens; assay: Selectivity ratio of IC50 for recombinant human His6-tagged PARP5a catalytic domain (1091 to 1325 residues) to IC50 for recombinant human His6-tagged PARP14 catalytic/WWE domain (1459 to 1801 residues)
[4] = target: T4, Protein mono-ADP-ribosyltransferase PARP12 (Homo sapiens, UniProt Q9H0J9); assay: Inhibition of His6-tagged PARP12 (unknown origin) preincubated for 15 mins followed by biotinylated NAD+ addition by chemiluminescence assay
T4 sequence (Q9H0J9 whole entry): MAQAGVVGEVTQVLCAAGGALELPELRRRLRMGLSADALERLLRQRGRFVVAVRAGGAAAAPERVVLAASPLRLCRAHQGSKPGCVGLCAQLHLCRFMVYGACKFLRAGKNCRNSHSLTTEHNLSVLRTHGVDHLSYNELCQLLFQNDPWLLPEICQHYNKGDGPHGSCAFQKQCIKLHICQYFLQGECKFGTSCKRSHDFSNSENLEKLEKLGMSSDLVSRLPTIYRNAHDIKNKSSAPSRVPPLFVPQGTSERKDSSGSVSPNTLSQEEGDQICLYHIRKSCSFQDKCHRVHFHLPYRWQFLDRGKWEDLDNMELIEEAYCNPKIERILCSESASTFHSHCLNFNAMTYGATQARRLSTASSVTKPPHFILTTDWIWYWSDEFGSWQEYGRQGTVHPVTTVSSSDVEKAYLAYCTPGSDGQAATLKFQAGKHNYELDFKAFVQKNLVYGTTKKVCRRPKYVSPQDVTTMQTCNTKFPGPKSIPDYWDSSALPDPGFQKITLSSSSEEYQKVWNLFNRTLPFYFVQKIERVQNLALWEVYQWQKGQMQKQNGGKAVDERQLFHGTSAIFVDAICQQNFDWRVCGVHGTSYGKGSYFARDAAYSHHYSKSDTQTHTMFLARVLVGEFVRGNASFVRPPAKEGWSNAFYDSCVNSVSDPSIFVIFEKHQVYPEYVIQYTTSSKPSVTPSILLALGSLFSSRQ

[5] = target: T5, Protein mono-ADP-ribosyltransferase PARP15 (Homo sapiens, UniProt Q460N3); assay: Inhibition of His6-tagged PARP15 (unknown origin) preincubated for 15 mins followed by biotinylated NAD+ addition by chemiluminescence assay
T5 sequence (Q460N3 whole entry): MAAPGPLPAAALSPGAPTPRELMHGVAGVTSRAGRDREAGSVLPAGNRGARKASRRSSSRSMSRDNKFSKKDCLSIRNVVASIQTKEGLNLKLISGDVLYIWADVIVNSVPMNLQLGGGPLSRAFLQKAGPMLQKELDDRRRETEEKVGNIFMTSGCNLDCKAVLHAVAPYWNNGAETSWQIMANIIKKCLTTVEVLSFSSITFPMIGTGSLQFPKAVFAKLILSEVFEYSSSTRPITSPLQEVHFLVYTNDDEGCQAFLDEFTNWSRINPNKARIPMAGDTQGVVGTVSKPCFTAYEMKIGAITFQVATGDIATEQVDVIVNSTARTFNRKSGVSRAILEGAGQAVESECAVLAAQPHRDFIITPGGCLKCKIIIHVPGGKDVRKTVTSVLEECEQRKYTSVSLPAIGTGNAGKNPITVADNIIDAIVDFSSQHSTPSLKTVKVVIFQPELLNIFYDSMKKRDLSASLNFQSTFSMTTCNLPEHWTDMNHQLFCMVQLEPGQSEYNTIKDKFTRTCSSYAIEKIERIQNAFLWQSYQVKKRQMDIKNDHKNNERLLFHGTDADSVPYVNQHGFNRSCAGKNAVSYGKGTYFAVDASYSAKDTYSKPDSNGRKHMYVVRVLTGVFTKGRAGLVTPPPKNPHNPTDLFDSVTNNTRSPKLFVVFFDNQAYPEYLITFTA

[6] = target: T6, Protein mono-ADP-ribosyltransferase PARP16 (Homo sapiens, UniProt Q8N5Y8); assay: Inhibition of His6-tagged PARP16 (unknown origin) preincubated for 15 mins followed by biotinylated NAD+ addition by chemiluminescence assay
T6 sequence (Q8N5Y8 whole entry): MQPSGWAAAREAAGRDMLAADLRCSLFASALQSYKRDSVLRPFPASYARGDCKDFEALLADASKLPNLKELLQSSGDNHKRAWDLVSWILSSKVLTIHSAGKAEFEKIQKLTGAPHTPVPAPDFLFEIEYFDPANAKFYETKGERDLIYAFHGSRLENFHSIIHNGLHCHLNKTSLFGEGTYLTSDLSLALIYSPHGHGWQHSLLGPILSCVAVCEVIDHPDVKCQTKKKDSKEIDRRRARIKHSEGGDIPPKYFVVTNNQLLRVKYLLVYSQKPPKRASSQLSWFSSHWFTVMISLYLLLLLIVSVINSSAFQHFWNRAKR

[7] = target: T1, Protein mono-ADP-ribosyltransferase PARP14; assay: Inhibition of recombinant human His6-tagged PARP14 catalytic/WWE domain (1459 to 1801 residues) expressed in Escherichia coli BL21(DE3) at 5 uM preincubated for 15 mins followed by biotinylated NAD+ addition by chemiluminescence assay relative to control
[8] = target: T2, Poly [ADP-ribose] polymerase 1; assay: Inhibition of recombinant human full length His6-tagged PARP1 expressed in Escherichia coli BL21(DE3) at 5 uM preincubated for 15 mins followed by biotinylated NAD+ addition by chemiluminescence assay relative to control

T1 sequence (Q460N5 whole entry, the tested form may be a part): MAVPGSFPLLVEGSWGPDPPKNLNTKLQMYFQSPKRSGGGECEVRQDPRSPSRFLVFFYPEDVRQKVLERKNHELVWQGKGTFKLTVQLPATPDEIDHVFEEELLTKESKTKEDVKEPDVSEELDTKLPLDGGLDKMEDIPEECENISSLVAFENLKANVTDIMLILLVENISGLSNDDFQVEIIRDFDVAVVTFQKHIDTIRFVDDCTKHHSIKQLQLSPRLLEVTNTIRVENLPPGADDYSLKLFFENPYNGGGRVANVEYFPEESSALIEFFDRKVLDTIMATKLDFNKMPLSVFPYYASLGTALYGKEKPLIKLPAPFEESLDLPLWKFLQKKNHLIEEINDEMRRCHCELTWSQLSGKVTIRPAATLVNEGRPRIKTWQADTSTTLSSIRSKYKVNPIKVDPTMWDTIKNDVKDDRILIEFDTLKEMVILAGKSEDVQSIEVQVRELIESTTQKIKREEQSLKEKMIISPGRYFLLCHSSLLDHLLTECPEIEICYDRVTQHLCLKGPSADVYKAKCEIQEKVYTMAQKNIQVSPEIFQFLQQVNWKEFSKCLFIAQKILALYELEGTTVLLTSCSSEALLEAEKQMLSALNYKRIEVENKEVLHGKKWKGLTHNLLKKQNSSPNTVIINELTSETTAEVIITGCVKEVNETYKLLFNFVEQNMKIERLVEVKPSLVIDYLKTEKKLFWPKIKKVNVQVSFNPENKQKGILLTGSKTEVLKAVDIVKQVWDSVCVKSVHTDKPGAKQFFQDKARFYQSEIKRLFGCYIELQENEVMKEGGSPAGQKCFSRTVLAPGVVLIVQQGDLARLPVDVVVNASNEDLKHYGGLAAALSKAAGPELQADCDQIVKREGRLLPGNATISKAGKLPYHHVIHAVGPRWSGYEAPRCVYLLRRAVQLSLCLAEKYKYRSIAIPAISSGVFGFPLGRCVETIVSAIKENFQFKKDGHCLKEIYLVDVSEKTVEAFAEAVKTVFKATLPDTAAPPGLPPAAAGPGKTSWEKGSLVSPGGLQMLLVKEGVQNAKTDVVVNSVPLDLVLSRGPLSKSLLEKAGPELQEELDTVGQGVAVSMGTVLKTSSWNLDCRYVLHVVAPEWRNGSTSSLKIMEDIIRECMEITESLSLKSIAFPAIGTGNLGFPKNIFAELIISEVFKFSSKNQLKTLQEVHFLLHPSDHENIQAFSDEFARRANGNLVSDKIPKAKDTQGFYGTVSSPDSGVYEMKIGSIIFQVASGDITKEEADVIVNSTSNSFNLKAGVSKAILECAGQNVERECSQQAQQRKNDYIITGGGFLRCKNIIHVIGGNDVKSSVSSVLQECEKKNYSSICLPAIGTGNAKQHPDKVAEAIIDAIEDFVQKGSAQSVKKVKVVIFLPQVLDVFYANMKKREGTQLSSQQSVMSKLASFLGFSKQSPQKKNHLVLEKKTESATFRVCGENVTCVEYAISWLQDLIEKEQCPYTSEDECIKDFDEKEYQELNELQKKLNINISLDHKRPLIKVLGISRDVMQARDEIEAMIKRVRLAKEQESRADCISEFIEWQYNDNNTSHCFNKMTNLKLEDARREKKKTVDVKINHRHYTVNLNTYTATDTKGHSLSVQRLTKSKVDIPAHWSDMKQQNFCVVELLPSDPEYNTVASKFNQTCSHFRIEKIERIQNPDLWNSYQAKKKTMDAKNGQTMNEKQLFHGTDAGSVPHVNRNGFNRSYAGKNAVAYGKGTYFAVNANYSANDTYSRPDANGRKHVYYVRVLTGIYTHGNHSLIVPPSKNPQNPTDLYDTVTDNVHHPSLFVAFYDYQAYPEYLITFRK

| Compound | IC50 ([1]; read-out: IC50) [nM] | IC50 [2] [nM] | IC50 ([3]; read-out: IC50) [nM] | Ratio IC50 (Homo sapiens) | also measured |
| --- | --- | --- | --- | --- | --- |
| NC(=O)c1cccc(NC(=O)/C=C\C(=O)N2CCCC(c3ccccc3)C2)c1 (stereo unspecified) | 690 | 1600 | 2700 |  | IC50 ([3]; read-out: pIC50 (converted)): 575 nM |
| NC(=O)c1cccc(NC(=O)/C=C\C(=O)N2CCN(c3ccc(Cl)cc3)CC2)c1 | 160 | 220 | 900 | 5.6 | IC50 ([1]; read-out: pIC50 (converted)): 617 nM; IC50 ([3]; read-out: pIC50 (converted)): 977 nM |
| CCOC(=O)CC1CCN(C(=O)/C=C\C(=O)Nc2cccc(C(N)=O)c2)CC1 | 2400 |  |  |  | IC50 ([1]; read-out: pIC50 (converted)): 407 nM |
| NC(=O)c1cccc(NC(=O)/C=C\C(=O)N2CCN(c3ccc(F)cc3)CC2)c1 | 700 | 560 | 2700 | 3.9 | IC50 [4]: 8200 nM; IC50 [5]: 520 nM; IC50 [6]: 560 nM |
| NC(=O)c1cccc(NC(=O)/C=C\C(=O)N2CCCCC2c2ccccc2)c1 (stereo unspecified) | 1100 |  |  |  |  |
| NC(=O)c1cccc(NC(=O)/C=C\C(=O)N2CCC(CCc3ccccc3)CC2)c1 | 650 |  |  |  | IC50 ([1]; read-out: pIC50 (converted)): 676 nM |
| NC(=O)c1cccc(N2C(=O)CC(N3CCN(c4ccccc4F)CC3)C2=O)c1 (stereo unspecified) | > 20000 |  |  |  |  |
| NC(=O)c1cccc(NC(=O)/C=C\C(=O)N2CCC(c3ccccc3)CC2)c1 | 2200 |  |  |  |  |
| CCOC(=O)C1CCCN(C(=O)/C=C\C(=O)Nc2cccc(C(N)=O)c2)C1 (stereo unspecified) |  |  |  |  | inhibition [7]: 21% |
| NC(=O)c1cccc(NC(=O)/C=C\C(=O)N2CCC(c3ccc(F)cc3)CC2)c1 | 270 | 270 | 8000 | 30 |  |
| CCOC(=O)C1CCN(C(=O)/C=C\C(=O)Nc2cccc(C(N)=O)c2)CC1 |  |  |  |  | inhibition [7]: 28% |
| NC(=O)c1cccc(NC(=O)/C=C\C(=O)N2CCC(Cc3ccccc3)CC2)c1 | 450 | 230 | 4800 | 11 |  |
| NC(=O)c1cccc(NC(=O)/C=C\C(=O)N2CCCCC2Cc2ccccc2)c1 (stereo unspecified) | 3500 |  |  |  |  |
| COc1ccc(N2CCN(C(=O)/C=C\C(=O)Nc3cccc(C(N)=O)c3)CC2)cc1 | 3400 |  |  |  |  |
| NC(=O)c1cccc(NC(=O)/C=C\C(=O)N2CCCC(Oc3ccccc3)C2)c1 (stereo unspecified) | 1400 |  |  |  | inhibition [8]: 90% |
| NC(=O)c1cccc(NC(=O)/C=C\C(=O)N2CCN(c3ccccc3F)CC2)c1 | 410 | 510 | 9400 | 23 |  |
| NC(=O)c1cccc(NC(=O)/C=C\C(=O)N2CCN(c3ccc(-c4ccccc4)cc3)CC2)c1 | 4200 | 800 | 9800 |  |  |
| CC(C)(C)OC(=O)N1CCN(C(=O)/C=C\C(=O)Nc2cccc(C(N)=O)c2)CC1 | 370 |  |  |  |  |
| NC(=O)c1cccc(NC(=O)/C=C\C(=O)N2CCN(c3ccccc3)CC2)c1 | 900 | 370 | 6000 | 6.7 |  |
| NC(=O)c1cccc(NC(=O)/C=C\C(=O)N2CCN(c3ncccn3)CC2)c1 | 2800 |  |  |  |  |

— ChEMBL document CHEMBL4020766, “Design and synthesis of potent inhibitors of the mono(ADP-ribosyl)transferase, PARP14” (Bioorg Med Chem Lett, 2017)
